Results on three compounds are retold here after patent publication US9648878B2, “Herbicidal agents containing flufenacet” (BAYER CROPSCIENCE AG, priority 2012, dated 2017).

Assay [1] relates to LOLSS resistant to HRAC group B. The assay is described as follows: Greenhouse post-emergence herbicidal action on resistant Lolium biotype (HRAC group B resistant). Type of assay: in vivo, Lolium spp. Particulars: post-emergence (PO, BBCH 11); dose g of AS/ha: flufenacet 60, aclonifen 150, diflufenican 37.5, (A)+(B)+(C) 60+150+37.5, pinoxaden+cloquintocet-mexyl 60+15, mesosulfuron+iodosulfuron+mefenpyr 15+3+45. The method, then:
(§1) In the standard implementation of the test, seeds of various broad-leaved weed and weed grass biotypes (origins) were sown in an 8-13 cm diameter pot filled with natural soil of a standard field soil (loamy silt; non-sterile) and covered with a covering soil layer of about 1 cm. The pots were then cultivated in a greenhouse (12-16 h light, temperature day 20-22° C., night 15-18° C.) until the time of application. The pots were treated on a laboratory track sprayer with spray liquors comprising the compositions according to the invention, mixtures of the prior art or the components applied individually. Application of the active compounds or active compound combinations formulated as WG, WP, EC or otherwise was carried out at the appropriate growth stages of the plants. The amount of water used for spray application was 100-600 I/ha. After the treatment, the plants were returned to the greenhouses.
(§2) About 3 weeks after the application, the soil action or/and foliar action was assessed visually according to a scale of 0-100% in comparison to an untreated comparative group: 0%=no noticable effect compared to the untreated comparative group; 100%=full effect compared to the untreated comparative group.
(§3) 2. Post-emergence action against weeds: seeds of various broad-leaved weed and weed grass biotypes (origins) were sown in an 8-13 cm diameter pot filled with natural soil of a standard field soil (loamy silt; non-sterile) and covered with a covering soil layer of about 1 cm. […]
(§4) Insofar as herbicidal effects of the compositions according to the invention compared to mixtures of the prior art or compared to components applied individually against economically important mono- and dicotyledonous harmful plants were the center of attention, the synergistic herbicidal activities were calculated using Colby's formula (cf. S. R. Colby; Weeds 15 (1967), 20-22): E^C=(A+B+C)−(A×B+A×C+B×C)/100+(A×B×C)/10000 […]
(§5) Δ=difference (%) of the measured value (%) to the expected value (%) (measured value minus expected value) […]

For assay [2], the system named is LOLSS resistant to HRAC group A. As to the kind of experiment: Greenhouse post-emergence herbicidal action on resistant Lolium biotype (HRAC group A resistant). Type of assay: in vivo, Lolium spp. Particulars: post-emergence (PO, BBCH 11); dose g of AS/ha: flufenacet 60, aclonifen 150, diflufenican 37.5, (A)+(B)+(C) 60+150+37.5, pinoxaden+cloquintocet-mexyl 60+15, mesosulfuron+iodosulfuron+mefenpyr 15+3+45. The method, then:
as §1, §2, §3, §4, §5

Turning to `O=C(Nc1ccc(F)cc1F)c1cccnc1Oc1cccc(C(F)(F)F)c1` [diflufenican (C), N-(2,4-difluorophenyl)-2-[3-(trifluoromethyl)phenoxy]-3-pyridinecarboxamide], the “herbicidal effect (visual score 0-100% vs untreated), LOLSS resistant to HRAC group B” value in assay [1] turned out to be 35%. The “herbicidal effect (visual score 0-100% vs untreated), LOLSS resistant to HRAC group A” value in assay [2] was 23%.
For `Nc1c([N+](=O)[O-])ccc(Oc2ccccc2)c1Cl` [aclonifen (B), 2-chloro-6-nitro-3-phenoxybenzenamine] the same measures were 38% and 5%.
Regarding `CC(C)N(C(=O)COc1nnc(C(F)(F)F)s1)c1ccc(F)cc1` [flufenacet (A), N-(4-fluorophenyl)-N-(1-methylethyl)-2-[[5-(trifluoromethyl)-1,3,4-thiadiazol-2-yl]oxy]acetamide], the “herbicidal effect (visual score 0-100% vs untreated), LOLSS resistant to HRAC group B” value in assay [1] amounted to 60%. Further, the “herbicidal effect (visual score 0-100% vs untreated), LOLSS resistant to HRAC group A” value in assay [2] came out at 18%.
